Source: patent publication US5153173A, “N-acyl derivatives of the peptidoglycan monomer, pharmaceutically acceptable salts thereof, their preparation and use as immunomodulators and immunoadjuvants” (Pliva Farmaceutska, priority 1990, dated 1992)
“And” between values parts separate entries of the source, which are not always exact repeats. Equal entries are not always repeated.

What was measured:
[1] = Z. Immun.-Forsch. 155 (1979), 312-328; cited from earlier work
[2] = Eur. J. Cancer Oncol. 19 (1983); Cancer Immunol. Immunother. 15 (1983), 18 (1984); cited from earlier work
[3] = system: PFC (plaque forming cells); experiment: Number of PFC (plaque forming cells), method of Jerne, in CBA mice; assay type: in vivo, CBA male mice; details: for Abs. PFC, % (control = 100) / PFC/l mil, % (control = 100) / PFC/l mil / Abs. PFC: CBA male mice, single i.v. dose 200 μg/mouse; for Abs. PFC, % (control = 100) / PFC/l mil, % (control = 100): relative to control of the same experiment; for PFC/l mil: PFC per 10^6 spleen lymphocytes; for PFC/l mil / Abs. PFC: value ± spread; for PFC activity with respect to the number of the spleen lymphocytes, significance / increase of PFC / overall PFC activity, significance (words): Student t-test versus control; for Abs. PFC: total number of PFC
Description: (§1) The biological activity of the claimed compounds was tested on CBA male mice, 2-2.5 months old. The animals had been adapting to the laboratory conditions at least one week prior to each testing. The effectiveness of the N-acyl derivative of PGM was compared with the results achieved in control mice goups which were administered a physiological solution (negative control) and the original PGM (positive control). All tested substances were administered to the organism by intravenous (i.v.) route in a single dose of 200 μg/mouse and 10 mg/kg resp. The following effects of the immunopharmacological activity were surveyed: spleen weight, number of lymphocytes and number of PFC (plaque forming cells) according to the method of Jerne (in: Cell Bound Antibodies, Whister Institute Press, Philadelphia (1963), p.109). The spleen weight is expressed in mg. The number of the spleen lymphocytes is expressed as the absolute number in 1 ml, whereas the PFC are expressed by way of their total number and by their activity 10^6 spleen lymphocytes. The test groups and the corresponding control groups resp. comprised each 5-7 mice. The activity of each N-acyl derivative of PGM was examined at least three times in various periods. The statistical analysis was performed with the parametric Student t-test, applying the original computer programme Stat Works. The significance of the differences was assessed by two-tailed test at the level of acceptance equal or less than 5%. The summarized results of the effects of individual N-acyl derivatives on the parameters of immune response are listed in Table 1.

[4] = Spleen weight of CBA mice after a single i.v. dose; assay type: in vivo, CBA male mice; details: for Spleen weight, % (control = 100) / Spleen weight: CBA male mice, single i.v. dose 200 μg/mouse (10 mg/kg); for Spleen weight, % (control = 100): relative to control of the same experiment; for Spleen weight: value ± spread; for change in the spleen weight: differences to control not significant, tendency of improved activity; for increase in the spleen weight in comparison to the control values: statistically significant, CBA mice, i.v. 200 μg/mouse
Description: as §1

spleen lymphocytes = experiment: Number of spleen lymphocytes of CBA mice after a single i.v. dose; assay type: in vivo, CBA male mice; design: No spleen cells: unit not given beside the values; details: for No spleen cells, % (control = 100) / No spleen cells: CBA male mice, single i.v. dose 200 μg/mouse; for No spleen cells, % (control = 100): relative to control of the same experiment; for reduction of the number of spleen lymphocytes in comparison to the control values / increase of the number of the spleen lymphocytes: absolute number in 1 mL; for reduction of the number of spleen lymphocytes in comparison to the control values / effect upon the number of spleen lymphocytes / increase of the number of the spleen lymphocytes: CBA mice, i.v. 200 μg/mouse; for No spleen cells: absolute number of spleen lymphocytes in 1 ml, value ± spread
Description: as §1

[5] = cited from earlier work
immune response = experiment: Overall immunopharmacological activity (cellular and humoral immunity) in CBA mice; assay type: in vivo, CBA male mice; details: for involvement in the humoral immunity / effect on the cellular immune response: conclusion from Table 1
Description: as §1

Compound | Abs. PFC, % (control = 100) [3] | PFC/l mil, % (control = 100) [3] | PFC/l mil [3] | No spleen cells, % (control = 100) (spleen lymphocytes) | PFC activity with respect to the number of the spleen lymphocytes, significance [3] | Abs. PFC [3] | Spleen weight, % (control = 100) [4] | Spleen weight [4] | reduction of the number of spleen lymphocytes in comparison to the control values (spleen lymphocytes) | No spleen cells (spleen lymphocytes) | change in the spleen weight [4] | further results
CC(=O)NC1C(OC2C(CO)OC(O)C(NC(C)=O)C2OC(C)C(=O)NC(C)C(=O)NC(CCC(=O)NC(CCCC(N)C(=O)O)C(=O)NC(C)C(=O)NC(C)C(=O)O)C(N)=O)OC(CO)C(O)C1O (centres unmarked) [PGM, peptidoglycan monomer] | 159% and 139% and 119% and 102% and 100% and 105% and 112% and 135% | 128% and 116% and 111% and 96% and 102% and 118% and 150% | 156.1 ± 102.78 and 190.4 ± 79.53 and 117.1 ± 48.37 and 214.4 ± 95.61 and 163.6 ± 72.39 and 141.4 ± 40.57 and 219.1 ± 96.98 and 206.9 | 122% and 87% and 113% and 94% and 93% and 102% and 90% | – | – | – | – | – | – | – | immunomodulating activity [1]: immunomodulating; antimetastatic activity [2]: antimetastatic activity; Spleen weight, % (control = 100) ([4]; 10 mg/kg): 115% and 107% and 104% and 103% and 106% and 102%; solubility in organic solvents ([5]; organic solvents): insoluble; solubility in water ([5]; water): well water-soluble
NA-salt of N-acetyl-PGM [Acetyl PGM] | 111% | 119% | 202.7 ± 91.97 | 96% | clearly expressed enhancing tendency | 85.8 ± 33.17 | 106% | 112.3 ± 12.08 mg | 4-6% | 41.9 ± 5.66 | – | –
Na-salt of N-benzoyl-PGM [Benzoyl PGM] | 138% | 142% | 282.1 | 100% | clearly expressed enhancing tendency | 95.7 ± 28.45 | 114% | 113.4 ± 22.28 mg | – | 34.1 ± 9.56 | relative increase | increase of PFC / overall PFC activity, significance (words) ([3]; listed as N-benzoyl): statistically significant difference; increase of PFC / overall PFC activity, significance (words) ([3]; listed as benzoyl): significant effect; involvement in the humoral immunity (immune response): more significantly involved; effect upon the number of spleen lymphocytes (spleen lymphocytes): no effect
Na-salt of N-capriloyl-PGM [Capriloyl PGM] | 159% | 126% | 154.2 ± 111.12 | 119% | – | 88.5 ± 75.95 | 100% | 120.4 ± 12.36 mg | – | 46.1 ± 11.70 | – | effect on the cellular immune response (immune response): significant effect; increase of the number of the spleen lymphocytes (spleen lymphocytes): 19%
Na-salt of N-lauroyl-PGM [Lauroyl PGM] | 162% | 155% | 254.2 | 79% | statistically significant difference | 125.4 ± 68.45 | 112% | 135.5 ± 22.60 mg | 20% | 45.2 ± 8.50 | relative increase | increase of PFC / overall PFC activity, significance (words) ([3]; listed as N-lauroyl): statistically significant difference; increase of PFC / overall PFC activity, significance (words) ([3]; listed as lauroyl): significant effect; activity in comparison with the original PGM (immune response; administered in the same concentration): superior activity; effect on the cellular immune response (immune response): significant effect; involvement in the humoral immunity (immune response): more significantly involved
Na-salt of N-pivaloyl-PGM [Pivaloyl PGM] | 110% | 118% | 163.8 ± 52.95 | 94% | – | 76.4 ± 24.94 | 107% | 125.5 ± 19.44 mg | 4-6% | 42.9 ± 9.82 | relative increase | –
sodium salt of N-oleoyl-PGM [Oleoyl PGM] | 113% | 109% | 210.8 ± 88.40 | 103% | – | 97.1 ± 41.86 | 121% | 131.7 ± 14.40 mg | – | 42.3 ± 7.96 | – | increase in the spleen weight in comparison to the control values [4]: 21%; increase of the number of the spleen lymphocytes (spleen lymphocytes): 3-9%
sodium salt of N-stearoyl-PGM [Stearoyl PGM] | 126% | 118% | 219.2 ± 67.11 | 100% | – | 93.4 ± 37.55 | 113% | 123.6 ± 18.63 mg | – | 37.8 ± 6.90 | – | increase in the spleen weight in comparison to the control values [4]: 13%; effect upon the number of spleen lymphocytes (spleen lymphocytes): no effect
